Experimental data reported in PubChem BioAssay AID256 (DTP/NCI, 2004).
Several values for one entry are separate records, joined by “and”; a condition that tells them apart may be missing. Identical values can stand only once. Toxic doses and inconclusive results are not listed. The calls were made as follows: active = survival T/C of 150% or more; inactive = T/C below 125% in these data. Residues, ends and D or L forms follow the SMILES beside them. *: point of attachment. Cbz = O=C(OCc1ccccc1)*; Bn = c1ccc(C*)cc1

Test system: CD2F1 mice, L1210 leukemia ip, survival T/C
Assay: NCI In Vivo Anticancer Drug Screen. Data for tumor model L1210 Leukemia (intraperitoneal) in CD2F1 (CDF1) mice
Settings: higher = longer survival
Method in brief: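 Tumor-bearing mice (transplanted tumor) were split into treated and vehicle control groups, and the measured endpoint of each treated group was divided by that of its vehicle controls.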

[1] = endpoint: mean survival time, dose: 100.0 mg/kg/injection, schedule: Q04DX003 (ip), vehicle: saline
[2] = endpoint: mean survival time, dose: 100.0 mg/kg/injection, schedule: Q01DX001 (ip), vehicle: saline with Tween-80
[3] = endpoint: mean survival time, dose: 200.0 mg/kg/injection, schedule: Q01DX001 (ip), vehicle: saline with Tween-80
[4] = endpoint: mean survival time, dose: 400.0 mg/kg/injection, schedule: Q01DX001 (ip), vehicle: saline with Tween-80
[5] = endpoint: mean survival time, dose: 12.5 mg/kg/injection, schedule: Q01DX009 (ip), vehicle: saline with Tween-80
[6] = endpoint: mean survival time, dose: 25.0 mg/kg/injection, schedule: Q01DX009 (ip), vehicle: saline with Tween-80
[7] = endpoint: mean survival time, dose: 100.0 mg/kg/injection, schedule: Q01DX009 (ip), vehicle: saline with Tween-80
[8] = endpoint: mean survival time, dose: 100.0 mg/kg/injection, schedule: Q04DX003 (ip), vehicle: saline with Tween-80
[9] = endpoint: mean survival time, dose: 100.0 mg/kg/injection, schedule: Q04DX002 (ip), vehicle: saline with Tween-80
[10] = endpoint: mean survival time, dose: 200.0 mg/kg/injection, schedule: Q04DX002 (ip), vehicle: saline with Tween-80
[11] = endpoint: mean survival time, dose: 200.0 mg/kg/injection, schedule: Q04DX003 (ip), vehicle: saline with Tween-80
[12] = endpoint: mean survival time, dose: 400.0 mg/kg/injection, schedule: Q04DX003 (ip), vehicle: saline with Tween-80
[13] = endpoint: mean survival time, dose: 200.0 mg/kg/injection, schedule: Q01DX009 (ip), vehicle: saline with Tween-80
[14] = endpoint: mean survival time, dose: 400.0 mg/kg/injection, schedule: Q01DX009 (ip), vehicle: saline with Tween-80

Measured: T/C

NC(N)=N/N=C/c1ccc(-c2ccccc2)cc1
inactive: endpoint: mean survival time, dose: 6.25 mg/kg/injection, schedule: Q01DX001 (ip), vehicle: saline with Tween-80 95 % of control | endpoint: mean survival time, dose: 12.5 mg/kg/injection, schedule: Q01DX001 (ip), vehicle: saline with Tween-80 109 % of control | endpoint: mean survival time, dose: 25.0 mg/kg/injection, schedule: Q01DX001 (ip), vehicle: saline with Tween-80 100 % of control

C[N+](C)(C)CCS(=O)(=O)[O-]
inactive: [1] 102 % of control | endpoint: mean survival time, dose: 200.0 mg/kg/injection, schedule: Q04DX003 (ip), vehicle: saline 100 % of control | endpoint: mean survival time, dose: 400.0 mg/kg/injection, schedule: Q04DX003 (ip), vehicle: saline 100 % of control

CC(/C=N/N(C)C)=N/[N+](C)(C)C
inactive: endpoint: mean survival time, dose: 50.0 mg/kg/injection, schedule: Q01DX009 (ip), vehicle: saline 101 % of control | endpoint: mean survival time, dose: 100.0 mg/kg/injection, schedule: Q01DX009 (ip), vehicle: saline 101 % of control

Cc1ccc(C)c(NC(=O)NC2CCCCC2)c1
inactive: [2] 98 % of control | [3] 101 % of control | [4] 101 % of control

O=C([O-])CC(=O)[O-].[NH-][C@@H]1CCCC[C@H]1[NH-].[Pt+4]
inactive: endpoint: mean survival time, dose: 6.25 mg/kg/injection, schedule: Q04DX003 (ip), vehicle: saline with Tween-80 113 % of control

CCCCCCCCCCCCCCCCCC[N+]1(C)CCC1C (configuration not stated)
inactive: endpoint: mean survival time, dose: 1.56 mg/kg/injection, schedule: Q01DX001 (ip), vehicle: saline 101 % of control | endpoint: mean survival time, dose: 3.12 mg/kg/injection, schedule: Q01DX001 (ip), vehicle: saline 102 % of control

CC#CC(=O)SCCNC(=O)CCNC(C)=O
inactive: [5] 112 % of control | [6] 102 % of control | endpoint: mean survival time, dose: 25.0 mg/kg/injection, schedule: Q04DX003 (ip), vehicle: saline 105 % of control | endpoint: mean survival time, dose: 50.0 mg/kg/injection, schedule: Q01DX009 (ip), vehicle: saline with Tween-80 108 % of control | endpoint: mean survival time, dose: 50.0 mg/kg/injection, schedule: Q04DX003 (ip), vehicle: saline 112 % of control | [7] 119 % of control | [1] 103 % of control

NNc1n[nH]c(=S)n1N
inactive: endpoint: mean survival time, dose: 6.25 mg/kg/injection, schedule: Q01DX009 (ip), vehicle: saline with Tween-80 103 % of control | [5] 102 % of control | [6] 104 % of control and 107 % of control

O=[N+]([O-])c1ccc(N(CCO)CCO)c2c1no[n+]2[O-]
inactive: endpoint: median survival time, dose: 12.5 mg/kg/injection, schedule: Q01DX009 (ip), vehicle: saline with Tween-80 114 % of control | endpoint: median survival time, dose: 25.0 mg/kg/injection, schedule: Q01DX009 (ip), vehicle: saline with Tween-80 111 % of control | endpoint: median survival time, dose: 50.0 mg/kg/injection, schedule: Q01DX009 (ip), vehicle: saline with Tween-80 114 % of control

COc1cccc(CN2CCCNCC2)c1
inactive: endpoint: mean survival time, dose: 25.0 mg/kg/injection, schedule: Q01DX005 (ip), vehicle: water 96 % of control | endpoint: mean survival time, dose: 50.0 mg/kg/injection, schedule: Q01DX005 (ip), vehicle: water 96 % of control | endpoint: mean survival time, dose: 100.0 mg/kg/injection, schedule: Q01DX005 (ip), vehicle: water 94 % of control

COC(=O)C(Cc1ccccc1)NC(=O)C(CSCc1ccccc1)NC(=O)OCc1ccccc1 (configuration not stated) (Cbz-Cys(Bn)-Phe-OMe; configuration not given here)
inactive: [2] 93 % of control | [7] 91 % of control | [3] 95 % of control | [4] 89 % of control

NNS(=O)(=O)c1ccccc1
inactive: endpoint: mean survival time, dose: 25.0 mg/kg/injection, schedule: Q04DX003 (ip), vehicle: saline with Tween-80 97 % of control | endpoint: mean survival time, dose: 50.0 mg/kg/injection, schedule: Q04DX003 (ip), vehicle: saline with Tween-80 97 % of control | [8] 94 % of control

O=C(O)/C=C\C(=O)O
inactive: endpoint: mean survival time, dose: 0.5 mg/kg/injection, schedule: Q04DX003 (ip), vehicle: saline with Tween-80 107 % of control | endpoint: mean survival time, dose: 1.0 mg/kg/injection, schedule: Q01DX009 (ip), vehicle: saline 100 % of control | endpoint: mean survival time, dose: 1.0 mg/kg/injection, schedule: Q04DX003 (ip), vehicle: saline with Tween-80 95 % of control | endpoint: mean survival time, dose: 1.56 mg/kg/injection, schedule: Q04DX003 (ip), vehicle: saline 89 % of control and 95 % of control | endpoint: mean survival time, dose: 2.0 mg/kg/injection, schedule: Q01DX009 (ip), vehicle: saline 97 % of control | endpoint: mean survival time, dose: 3.0 mg/kg/injection, schedule: Q04DX003 (ip), vehicle: saline with Tween-80 103 % of control | endpoint: mean survival time, dose: 3.13 mg/kg/injection, schedule: Q04DX003 (ip), vehicle: saline 87 % of control and 91 % of control | endpoint: mean survival time, dose: 6.0 mg/kg/injection, schedule: Q04DX003 (ip), vehicle: saline with Tween-80 103 % of control | endpoint: mean survival time, dose: 6.25 mg/kg/injection, schedule: Q04DX003 (ip), vehicle: saline 92 % of control and 96 % of control

OC1COC(C(/C=N/Nc2ccccc2)=N/Nc2ccccc2)C1O (configuration not stated)
inactive: endpoint: median survival time, dose: 25.0 mg/kg/injection, schedule: Q01DX005 (ip), vehicle: distilled water + Tween-80 97 % of control | endpoint: median survival time, dose: 50.0 mg/kg/injection, schedule: Q01DX005 (ip), vehicle: distilled water + Tween-80 94 % of control | endpoint: median survival time, dose: 100.0 mg/kg/injection, schedule: Q01DX005 (ip), vehicle: distilled water + Tween-80 87 % of control | endpoint: median survival time, dose: 200.0 mg/kg/injection, schedule: Q01DX005 (ip), vehicle: distilled water + Tween-80 92 % of control | endpoint: median survival time, dose: 400.0 mg/kg/injection, schedule: Q01DX005 (ip), vehicle: distilled water + Tween-80 92 % of control

CCOC(=O)c1nc(SC)n(C)c1C(=O)OCC
inactive: [9] 94 % of control | [10] 105 % of control

CC(=O)Nc1ccc2ccccc2c1
inactive: [8] 103 % of control | [11] 93 % of control | [12] 104 % of control

CN(Cc1ccccc1)Cc1ccccc1
inactive: endpoint: mean survival time, dose: 100.0 mg/kg/injection, schedule: Q04DX002 (ip), vehicle: saline 100 % of control | endpoint: mean survival time, dose: 200.0 mg/kg/injection, schedule: Q04DX002 (ip), vehicle: saline 94 % of control

C=CCNC(C)=O
inactive: endpoint: mean survival time, dose: 100.0 mg/kg/injection, schedule: Q01DX001 (ip), vehicle: saline 103 % of control | endpoint: mean survival time, dose: 200.0 mg/kg/injection, schedule: Q01DX001 (ip), vehicle: saline 97 % of control | endpoint: mean survival time, dose: 400.0 mg/kg/injection, schedule: Q01DX001 (ip), vehicle: saline 103 % of control

CN1NC(c2ccc(Cl)cc2)C2CN(C3CCCCC3)C(=O)C21O (configuration not stated)
inactive: [2] 100 % of control | [7] 96 % of control | [3] 96 % of control | [13] 90 % of control | [4] 94 % of control | [14] 88 % of control

c1ccc(N/N=C(/c2ccccc2)c2ccccn2)cc1
inactive: [2] 103 % of control | [3] 111 % of control | [4] 105 % of control

C/C(=N\NS(=O)(=O)c1ccc(C)cc1)c1ccccc1
inactive: [9] 108 % of control | [10] 96 % of control | endpoint: mean survival time, dose: 400.0 mg/kg/injection, schedule: Q04DX002 (ip), vehicle: saline with Tween-80 103 % of control

O=C(CCCN1CCC2(CC1)CC(=O)N(N1CCCC1)C2=O)c1ccc(F)cc1
inactive: [2] 108 % of control | [3] 116 % of control | [4] 116 % of control

O=C(Nc1ccc(Nc2ccc(NC(=O)c3ccccc3)c3c2C(=O)c2ccccc2C3=O)c2c1C(=O)c1ccccc1C2=O)c1ccccc1
inactive: [7] 95 % of control | [8] 108 % of control | [13] 95 % of control | [11] 100 % of control | [14] 100 % of control | [12] 102 % of control
